For 22 compounds, IC50 results are on record in patent publication EP0562832A1, “Indole and indazole derivatives, for the treatment and prophylaxis of cerebral disorders, their preparation and their use” (priority 1992, dated 1993).

Where a name gives a salt, the structure may show the parent alone.

The assay concerns the target T1, acetylcholinesterase (Mus musculus, UniProt P21836).
T1 construct: The mouse brain was homogenised by means of a 5-fold amount of a 100 mM phosphate buffer (pH 8.0) to prepare an enzyme sample; from tissue; host or cells: brain of male ddY mice, 5 to 7 weeks old (Japan SLC)
T1 sequence (P21836 32-614): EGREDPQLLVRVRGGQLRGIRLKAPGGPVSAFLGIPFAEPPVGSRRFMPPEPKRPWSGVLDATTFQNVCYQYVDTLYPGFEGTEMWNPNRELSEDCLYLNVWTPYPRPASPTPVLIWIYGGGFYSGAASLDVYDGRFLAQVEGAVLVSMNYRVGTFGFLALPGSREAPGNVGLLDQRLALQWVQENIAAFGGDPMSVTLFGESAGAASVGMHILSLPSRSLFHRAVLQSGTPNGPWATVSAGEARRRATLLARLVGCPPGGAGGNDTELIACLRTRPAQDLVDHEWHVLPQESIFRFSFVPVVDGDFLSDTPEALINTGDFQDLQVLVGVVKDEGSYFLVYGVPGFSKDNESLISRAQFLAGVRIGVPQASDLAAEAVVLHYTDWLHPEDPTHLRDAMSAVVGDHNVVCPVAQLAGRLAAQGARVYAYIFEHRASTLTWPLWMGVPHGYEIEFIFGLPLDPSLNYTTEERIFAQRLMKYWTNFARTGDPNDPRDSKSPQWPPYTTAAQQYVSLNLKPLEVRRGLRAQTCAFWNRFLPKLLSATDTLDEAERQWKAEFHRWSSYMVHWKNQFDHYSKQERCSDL
Put plainly: Assay of acetylcholinesterase inhibitory activity (Elman's method, mouse brain homogenate). The class given is biochemical.
The IC50 is the concentration that gives 50% inhibition. Read a high IC50 as weaker potency. For the compound `CCc1ccc2c(C(=O)CCC3CCN(Cc4ccccc4)CC3)cn(C)c2c1` [1-16], 4 nM corresponded to half-maximal inhibition (IC50).

`Cn1cc(C(=O)CCC2CCN(Cc3cccc(F)c3)CC2)c2cc(F)ccc21` [1-315, 1-Methyl-3-{3-[1-(3-fluorobenzyl)-4-piperidyl]propionyl}-5-fluoroindole oxalate]: the half-maximal inhibitory concentration (IC50) came to 2.3 nM.

`Cc1ccc2c(c1)c(C(=O)CCC1CCN(Cc3ccccc3)CC1)nn2C` [2-8] showed a half-maximal inhibitory concentration (IC50) of 13 nM.

Compound `Cn1nc(C(=O)C=CC2CCN(Cc3ccccc3)CC2)c2c(Cl)cccc21` [2-23] registered an IC50 of 11 nM.

For `Cn1nc(C(=O)CCC2CCN(Cc3ccccc3)CC2)c2c(Cl)cccc21` [2-24], the IC50 came out at 10 nM.

Consider `Cn1cc(C(=O)CCC2CCN(Cc3ccccc3)CC2)c2ccccc21` [Compound No. 1-2, 1-Methyl-3-[3-(1-benzyl-4-piperidyl)propionyl]indole], for which inhibition was half-maximal at 3.3 nM (IC50).

`Cn1cc(C(=O)CCC2CCN(Cc3ccccc3)CC2)c2ccccc21` [Compound No. 1-4, 1-Methyl-3-[3-(1-benzyl-4-piperidyl)propionyl]indole oxalate] displayed a concentration for half-maximal inhibition (IC50) of 10 nM.

Compound `Cn1cc(C(=O)CCC2CCN(Cc3ccccc3)CC2)c2cc(Cl)ccc21` [Compound No. 1-28, 1-Methyl-3-[3-(1-benzyl-4-piperidyl)propionyl]-5-chloroindole] had an IC50 of 4 nM.

The compound `Cn1cc(C(=O)CCC2CCN(Cc3ccccc3)CC2)c2ccc(Cl)cc21` [Compound No. 1-30, 1-Methyl-3-[3-(1-benzyl-4-piperidyl)propionyl]-6-chloroindole] came in with an IC50 of 9 nM.

For the compound `Cn1cc(C(=O)CCC2CCN(Cc3ccccc3)CC2)c2cc(F)ccc21` [Compound No. 1-40, 1-Methyl-3-[3-(1-benzyl-4-piperidyl)propionyl]-5-fluoroindole], the concentration for half-maximal inhibition (IC50) was 4 nM.

As for `Cn1cc(C(=O)CCC2CCN(Cc3cccc(F)c3)CC2)c2ccccc21` [Compound No. 1-78, 1-Methyl-3-{3-[1-(3-fluorobenzyl)-4-piperidyl]propionyl}indole], half-maximal inhibition (IC50) required 8 nM.

In turn, `Cn1cc(C(=O)CCC2CCN(Cc3cccc(Cl)c3)CC2)c2ccccc21` [Compound No. 1-85, 1-Methyl-3-{3-[1-(3-chlorobenzyl)-4-piperidyl]propionyl}indole hydrochloride] returned a 50% inhibitory concentration (IC50) of 6.5 nM.

Compound `Cn1cc(C(=O)CCC2CCN(Cc3cccs3)CC2)c2ccccc21` [Compound No. 1-116, 1-Methyl-3-{3-[1-(2-thienylmethyl)-4-piperidyl]propionyl}indole] showed an IC50 of 10 nM.

With `Cn1cc(C(=O)CCC2CCN(Cc3cccc(Cl)c3)CC2)c2cc(Cl)ccc21` [Compound No. 1-304, 1-Methyl-3-{3-[1-(3-chlorobenzyl)-4-piperidyl]propionyl}-5-chloroindole hydrochloride], the IC50 is 7.5 nM.

In turn, `Cn1cc(C(=O)CCC2CCN(Cc3cccc(F)c3)CC2)c2cc(Cl)ccc21` [Compound No. 1-309, 1-Methyl-3-{3-[1-(3-fluorobenzyl)-4-piperidyl]propionyl}-5-chloroindole] showed a half-inhibitory concentration (IC50) of 8.2 nM.

With `Cn1cc(C(=O)CCC2CCN(Cc3cccc(F)c3)CC2)c2cc(F)ccc21` [Compound No. 1-313, 1-Methyl-3-{3-[1-(3-fluorobenzyl)-4-piperidyl]propionyl}-5-fluoroindole], the IC50 was found to be 2 nM.

The compound `Cn1cc(C(=O)CCC2CCN(Cc3cccc(F)c3)CC2)c2cc(F)ccc21` [Compound No. 1-314, 1-Methyl-3-{3-[1-(3-fluorobenzyl)-4-piperidyl]propionyl}-5-fluoroindole hydrochloride] returned an IC50 of 3.4 nM.

Consider `Cn1nc(C(=O)CCC2CCN(Cc3ccccc3)CC2)c2ccccc21` [Compound No. 2-2, 1-Methyl-3-[3-(1-benzyl-4-piperidyl)propionyl]indazole], for which inhibition was half-maximal at 10 nM (IC50).

`Cn1nc(C(=O)CCC2CCN(Cc3ccccc3)CC2)c2ccccc21` [Compound No. 2-3, 1-Methyl-3-[3-(1-benzyl-4-piperidyl)propionyl]indazole hydrochloride] came in with a half-inhibitory concentration (IC50) of 12 nM.

Compound `Cc1ccc2c(C(=O)C=CC3CCN(Cc4ccccc4)CC3)nn(C)c2c1` [Compound No. 2-9] displayed a half-maximal inhibitory concentration (IC50) of 14 nM.

Compound `Cn1nc(C(=O)CCC2CCN(Cc3ccccc3Cl)CC2)c2ccccc21` [Compound No. 2-96, 1-Methyl-3-{3-[1-(2-chlorobenzyl)-4-piperidyl]propionyl}indazole hydrochloride] came in with an IC50 of 13.9 nM.

In turn, `Cn1nc(C(=O)CCC2CCN(Cc3cccc(Cl)c3)CC2)c2ccccc21` [Compound No. 2-99, 1-Methyl-3-{3-[1-(3-chlorobenzyl)-4-piperidyl]-propionyl}indazole hydrochloride] showed a 50% inhibitory concentration (IC50) of 31.7 nM.
